Data: patent US11300509B2, “Cleavable linkers for protein translation reporting” (9412-1126 Québec inc., priority 2020, dated 2022)
No end group written: not given here.

Legend:
Cherry1-10 = target: T1, Cherry1-10 (Discosoma sp., UniProt Q9U6Y8, A164R/C117E/F124L/F177V/H162N/H41T/I125L/I180T/K163Q/K83L/K92T/L150M/L174D/M182K/N42Q/Q66M/R153E/R17H/R36H/S179T/S197I/T21S/V127T/V156A/V175A/V44A/V71A/Y192A/Y194N); assay: In vitro reconstitution of split Cherry: Cherry11 peptide mixed with Cherry1-10; format: binding
T1 construct: made in house; host or cells: Escherichia coli BL21(DE3)
Procedure: Fluorescence output was recorded every 0.1 seconds for a duration of 30 seconds.
In vitro fluorescence complementation was performed by mixing purified XFP1-10 protein and chemically synthesized XFP11 peptides and the fluorescence intensity of the reaction was collected with a StepOnePlus real-time thermal cycler (Thermo-Fisher). […] XFP1-10 in TNG buffer or PBS (varied pH) was added to wells of a 96-well microplate coated with 1 mM bovine serum albumin and allowed to equilibrate for 60 seconds. XFP11 peptide was added according to different final peptide concentrations and the microplate was immediately loaded into the fluorescence reader. The fluorescence intensity was measured every 10 seconds for 45 minutes at 32° C. or 37° C. with 495 nm excitation and 520 nm emission. The fluorescence intensity was normalized to the initial fluorescence intensity to express relative fluorescence increase upon fluorescence reconstitution. […] Standard curves for XFP fluorescence measurements were generated by either using reconstituted XFP or XFP purified from E. coli using GFP specific chromatography columns (Bio-Rad). XFP protein concentration was determined using the Bradford assay and absorbance readings at 280 nm with a NanoDrop 2000 (Thermo-Fisher). Samples were serially diluted (1:10 or 1:5) and 10 μL samples were imaged to reduce any non-linear fluorescence excitation effects. […]

GFP1-10 = target: T2, GFP1-10 (Aequorea victoria, UniProt P42212, A206V/E111V/F64L/F99S/I128T/I167V/I171V/K166T/M153T/N105K/Q80R/S205T/S30R/S65T/V163A/Y145F/Y39I); assay: In vitro reconstitution (fluorescence complementation) of split GFP: GFP11 peptide mixed with purified GFP1-10; format: binding; parameters: half time of reconstitution: dose or concentration left out as unconfirmed; details: for observed rate constant (kobs) of GFP11 peptide binding: pseudo-first order
T2 construct: Residues 1-213 of GFP, corresponding to the first 10 beta strands of GFP (GFP1-10); made in house; host or cells: Escherichia coli BL21(DE3)
Procedure: FIGS. 1F-G, relating to the stoichiometric production of GFP11 reporter as a function of time using a PTR linker to allow instantaneous detection of protein translation, are graphs that illustrate that reconstitution of split GFP as a function of seconds passed. […] Within the first second of reconstitution, i.e., in milliseconds, fluorescence emission begins (FIG. 1F), and the fluorescence intensity of the reaction rose logarithmically and began to saturate after 5 minutes (FIG. 1G). […] To obtain kinetic measurements of the reconstitution reaction at sub-second timescales, an ultrasensitive fluorescence spectrophotometer was used. A stopped-flow dispenser was used to mix and deliver known volumes of GFP1-10 and GFP11 proteins. This allowed the establishment of a to for the moment split GFP components first interact. […] Fluorescence increase over time from the bimolecular reaction was modeled as pseudo-first order and fit to a one phase association curve to determine the observed rate constant (kobs) of GFP11 peptide binding for each concentration of GFP11 tested. For 50 nM GFP11 and excess GFP1-10, the kobs is 0.003 s-1.
In the volume of a medium-size cell, the slower, lowest concentration reactions would generate tens of reconstituted molecules per second, and for the average protein synthesis hundreds per second. […].
In vitro fluorescence complementation was performed by mixing purified XFP1-10 protein and chemically synthesized XFP11 peptides and the fluorescence intensity of the reaction was collected with a StepOnePlus real-time thermal cycler (Thermo-Fisher). […] XFP11 peptide was added according to different final peptide concentrations and the microplate was immediately loaded into the fluorescence reader. The fluorescence intensity was measured every 10 seconds for 45 minutes at 32° C. or 37° C. with 495 nm excitation and 520 nm emission. The fluorescence intensity was normalized to the initial fluorescence intensity to express relative fluorescence increase upon fluorescence reconstitution. […] Standard curves for XFP fluorescence measurements were generated by either using reconstituted XFP or XFP purified from E. coli using GFP specific chromatography columns (Bio-Rad). XFP protein concentration was determined using the Bradford assay and absorbance readings at 280 nm with a NanoDrop 2000 (Thermo-Fisher). Samples were serially diluted (1:10 or 1:5) and 10 μL samples were imaged to reduce any non-linear fluorescence excitation effects. […] Total fluorescence intensity (in photon counts) was collected every 0.1 s or 0.01 s for varying durations.
Pearson's linear correlations were calculated by fitting the data to a simple linear regression model, with the coefficient of determination, R2. […]

Substance | onset of reconstitution upon addition of peptide (Cherry1-10; Cherry1-10 and Cherry11 in vitro, FIG. 3E) | fluorescence signal strength of reconstitution (Cherry1-10; compared with split GFP and split Dendra2) | observed rate constant (kobs) of GFP11 peptide binding (GFP1-10; 50 nM GFP11 and excess GFP1-10, one phase association fit) [s⁻¹] | half time of reconstitution (GFP1-10; one phase association fit, FIG. 1G) [s] | observed rate constant (kobs) of GFP11 peptide binding (GFP1-10; one phase association fit, FIG. 1G, R2=0.99) [s⁻¹] | time to detection of green fluorescence upon mixing (GFP1-10; stopped-flow mixing of GFP1-10 and GFP11) [ms]
Cherry11: small fragment of split mCherry red fluorescent protein; purified peptide that reconstitutes with Cherry1-10 (MGGGGSGGGGSYTIVEQYERAEGRHSTGG) | immediately | overall weaker signal compared to split GFP and split Dendra2 | – | – | – | –
RDHMVLHEYVNAAGIT [GFP11] | – | – | 0.003 | 95 | 0.007 ± 0.0001 | ≤ 100
